# Target: Tyrosine-protein kinase BTK (Homo sapiens, UniProt Q06187)
# Experiment: Enzymatic Activity Assay: A Caliper-based kinase assay (Caliper Life Sciences, Hopkinton, Mass.) was used to measure inhibition of BTK kinase activity of a compound of the present disclosure. Serial dilutions of test compounds were incubated with human recombinant BTK (0.5 nM), ATP (16 μM) and a phosphoacceptor peptide substrate FAM-GEEPLYWSFPAKKK-NH2 (1 μM) at room temperature for 3 h. The reaction was then terminated with EDTA, final concentration 20 mM and the phosphorylated reaction product was quantified on a Caliper Desktop Profiler (Caliper LabChip 3000). Percent inhibition was calculated for each compound dilution and the concentration that produced 50% inhibition was calculated.
# Sequence of Tyrosine-protein kinase BTK (Q06187 whole entry): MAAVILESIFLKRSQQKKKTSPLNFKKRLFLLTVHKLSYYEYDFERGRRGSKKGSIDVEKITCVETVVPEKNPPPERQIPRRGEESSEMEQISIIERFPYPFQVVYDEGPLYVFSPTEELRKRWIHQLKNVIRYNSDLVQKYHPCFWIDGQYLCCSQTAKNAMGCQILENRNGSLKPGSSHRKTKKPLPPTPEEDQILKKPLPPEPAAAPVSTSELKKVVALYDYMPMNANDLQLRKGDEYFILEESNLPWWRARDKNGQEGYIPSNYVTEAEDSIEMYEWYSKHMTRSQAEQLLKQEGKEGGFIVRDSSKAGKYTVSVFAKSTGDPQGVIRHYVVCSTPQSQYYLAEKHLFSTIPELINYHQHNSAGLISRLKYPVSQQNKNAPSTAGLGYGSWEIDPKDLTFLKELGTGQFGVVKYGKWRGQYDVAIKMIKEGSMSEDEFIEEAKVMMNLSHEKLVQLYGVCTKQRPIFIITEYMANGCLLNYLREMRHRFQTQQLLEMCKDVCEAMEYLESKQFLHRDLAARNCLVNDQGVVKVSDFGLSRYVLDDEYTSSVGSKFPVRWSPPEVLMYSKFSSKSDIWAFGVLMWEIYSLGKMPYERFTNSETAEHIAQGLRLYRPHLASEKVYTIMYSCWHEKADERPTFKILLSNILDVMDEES
row,SMILES,IC50 [nM]
1,CN1CCN(C(C)(C)C=C(C#N)C(=O)N2CCC[C@@H](c3nc(-c4ccc(Oc5ccccc5)cc4F)c4c(N)nccn34)C2)CC1=O,2.6
2,CC(C)(C=C(C#N)C(=O)N1CCC[C@@H](c2nc(-c3ccc(Oc4ccccc4)cc3F)c3c(N)nccn23)C1)N1CCN(C2(C)COC2)CC1,2.4
3,Cc1cc(-c2nn([C@@H]3CCCN(C(=O)C(C#N)=CC(C)(C)N4CCN(C5COC5)CC4)C3)c3ccnc(N)c23)ccc1Oc1ccccc1,1.3
4,CC(C)(C=C(C#N)C(=O)N1CCC[C@@H](n2nc(-c3ccc(C(=O)Nc4ccccn4)cc3)c3c(N)nccc32)C1)N1CCN(C2COC2)CC1,2.2
5,CC(C)(C=C(C#N)C(=O)N1CCC[C@@H](n2nc(-c3ccc(Oc4ccccc4)cc3F)c3c(N)nccc32)C1)N1CCN(C2COC2)CC1,1.4
6,CC(C)(C=C(C#N)C(=O)N1CCC[C@@H](n2nc(-c3ccc(Oc4ccccc4)cc3F)c3c(N)ncnc32)C1)N1CCN(C2(C)COC2)CC1,0.3
7,CC(C)(C=C(C#N)C(=O)N1CCC[C@@H](n2nc(-c3ccc(Oc4ccccc4)cc3F)c3c(N)nccc32)C1)C1(C)CCN(C2COC2)CC1,45.7
8,CC(C)(C=C(C#N)C(=O)N1CCC[C@@H](n2nc(-c3ccc(Oc4ccccc4)cc3F)c3c(N)nccc32)C1)N1CCN(C2(C)COC2)CC1,0.8
9,CC(C)(C=C(C#N)C(=O)N1CCC[C@@H](n2nc(-c3ccc(Oc4ccccc4F)cc3)c3c(N)nccc32)C1)N1CCN(C2COC2)CC1,2.2

# From ChEMBL document CHEMBL5728770, “Heterocycle comprising tyrosine kinase inhibitors” (2021)
